Numbers after ± are expanded uncertainties.
Columns and labels:
[1] = 101.3 kPa, Liquid; for viscosity: Falling or rolling sphere viscometry; for mass density: Vibrating tube method
[2] = wn = mass fraction of the nth substance listed; conditions: 101.3 kPa, Liquid, w1 = 1; for viscosity: Falling or rolling sphere viscometry; for mass density: Vibrating tube method

NCCO [2-aminoethan-1-ol]
[1]
Conditions | mass density [kg/m3] | viscosity [mPa·s]
293.15 K | 1016.7 ± 2 | 24.23 ± 0.99
298.15 K | 1012.8 ± 2 | 18.94 ± 0.77
303.15 K | 1008.8 ± 2 | 15.04 ± 0.61
308.15 K | 1004.9 ± 2 | 12.14 ± 0.49
313.15 K | 1000.9 ± 2 | 9.938 ± 0.4
318.15 K | 996.9 ± 2 | 8.236 ± 0.34
323.15 K | 992.9 ± 2 | 6.907 ± 0.28
328.15 K | 988.8 ± 2 | 5.855 ± 0.24
333.15 K | 984.8 ± 2 | 5.011 ± 0.2
338.15 K | 980.7 ± 2 | 4.327 ± 0.18
343.15 K | 976.6 ± 2 | 3.766 ± 0.15
348.15 K | 972.5 ± 2 | 3.3 ± 0.13
353.15 K | 968.4 ± 2 | 2.908 ± 0.12

NCCO [2-aminoethan-1-ol] + COCCO
[2]
Conditions | mass density [kg/m3] | viscosity [mPa·s]
293.15 K | 1016.7 ± 2 | 24.23 ± 0.99
298.15 K | 1012.8 ± 2 | 18.94 ± 0.77
303.15 K | 1008.8 ± 2 | 15.04 ± 0.61
308.15 K | 1004.9 ± 2 | 12.14 ± 0.49
313.15 K | 1000.9 ± 2 | 9.938 ± 0.4
318.15 K | 996.9 ± 2 | 8.236 ± 0.34
323.15 K | 992.9 ± 2 | 6.907 ± 0.28
328.15 K | 988.8 ± 2 | 5.855 ± 0.24
333.15 K | 984.8 ± 2 | 5.011 ± 0.2
338.15 K | 980.7 ± 2 | 4.327 ± 0.18
343.15 K | 976.6 ± 2 | 3.766 ± 0.15
348.15 K | 972.5 ± 2 | 3.3 ± 0.13
353.15 K | 968.4 ± 2 | 2.908 ± 0.12

COCCO [2-methoxyethan-1-ol]
[1]
Conditions | mass density [kg/m3] | viscosity [mPa·s]
293.15 K | 964.7 ± 2 | 1.692 ± 0.071
298.15 K | 960.1 ± 2 | 1.527 ± 0.064
303.15 K | 955.5 ± 2 | 1.386 ± 0.058
308.15 K | 950.9 ± 2 | 1.262 ± 0.053
313.15 K | 946.2 ± 2 | 1.155 ± 0.048
318.15 K | 941.5 ± 2 | 1.061 ± 0.044
323.15 K | 936.7 ± 2 | 0.9781 ± 0.041
328.15 K | 932 ± 2 | 0.905 ± 0.037
333.15 K | 927.2 ± 2 | 0.8397 ± 0.035
338.15 K | 922.3 ± 2 | 0.7818 ± 0.032
343.15 K | 917.4 ± 2 | 0.7298 ± 0.03
348.15 K | 912.4 ± 2 | 0.6834 ± 0.028
353.15 K | 907.4 ± 2 | 0.6409 ± 0.026

Reference: the NIST ThermoML archive (doi:10.1016/j.jct.2018.12.028)
